This is an account of results in publication PMC5218480 (PLoS ONE, 2017).

The subject of the assay is MV-4-11 cells. The assay is described as follows: Gene expression microarray analysis (Affymetrix PrimeView) and GSEA. Type of assay: cell-based, human. Further details: RFU PODN (11730768_x_at) / Fold change /veh PODN (11730768_x_at) / RFU LINC00158 (11744669_a_at) / Fold change /veh LINC00158 (11744669_a_at) / RFU DUSP10 (11751237_a_at) / Fold change /veh DUSP10 (11751237_a_at) / RFU ID3 (11757404_x_at) / Fold change /veh ID3 (11757404_x_at) / RFU PLEKHG5 (11737974_s_at) / Fold change /veh PLEKHG5 (11737974_s_at) / RFU LRRC4B (11730491_at) / Fold change /veh LRRC4B (11730491_at) / RFU GIMAP4 (11747438_a_at) / Fold change /veh GIMAP4 (11747438_a_at) / RFU KRT8 (11758183_x_at) / Fold change /veh KRT8 (11758183_x_at) / RFU CNN1 (11734310_a_at) / Fold change /veh CNN1 (11734310_a_at) / RFU VPS37D (11726825_at) / Fold change /veh VPS37D (11726825_at) / RFU C10orf10 (11716522_x_at) / Fold change /veh C10orf10 (11716522_x_at) / RFU KIR2DL2 /// KIR2DL4 /// KIR2DL5A /// KIR2DL5B /// KIR2DS1 /// KIR2DS2 /// KIR2DS3 /// KIR2DS4 /// KIR3DL3 /// KIR3DL3 /// KIR3DS1 (11738374_at) / Fold change /veh KIR2DL2 /// KIR2DL4 /// KIR2DL5A /// KIR2DL5B /// KIR2DS1 /// KIR2DS2 /// KIR2DS3 /// KIR2DS4 /// KIR3DL3 /// KIR3DL3 /// KIR3DS1 (11738374_at) / RFU C1QL1 (11718748_at) / Fold change /veh C1QL1 (11718748_at) / RFU TMPRSS4 (11747572_a_at) / Fold change /veh TMPRSS4 (11747572_a_at) / RFU HAMP (11756126_x_at) / Fold change /veh HAMP (11756126_x_at) / RFU RNFT2 (11725882_a_at) / Fold change /veh RNFT2 (11725882_a_at) / RFU NR4A2 (11747474_a_at) / Fold change /veh NR4A2 (11747474_a_at) / RFU ABCC12 (11746883_a_at) / Fold change /veh ABCC12 (11746883_a_at) / RFU TMEM136 (11760407_x_at) / Fold change /veh TMEM136 (11760407_x_at) / RFU CLDN22 /// WWC2 (11732394_at) / Fold change /veh CLDN22 /// WWC2 (11732394_at) / RFU HLA-DPB1 (11760878_x_at) / Fold change /veh HLA-DPB1 (11760878_x_at) / RFU SPINT1 (11716480_a_at) / Fold change /veh SPINT1 (11716480_a_at) / RFU GAP43 (11754022_s_at) / Fold change /veh GAP43 (11754022_s_at) / RFU A4GNT (11735810_at) / Fold change /veh A4GNT (11735810_at) / RFU PRB3 (11715151_x_at) / Fold change /veh PRB3 (11715151_x_at) / RFU TUBB4B (11761932_at) / Fold change /veh TUBB4B (11761932_at) / RFU CAPN14 (11732068_a_at) / Fold change /veh CAPN14 (11732068_a_at) / RFU TMCC2 (11721928_a_at) / Fold change /veh TMCC2 (11721928_a_at) / RFU IRGQ (11745062_a_at) / Fold change /veh IRGQ (11745062_a_at) / RFU FAM174B (11720279_a_at) / Fold change /veh FAM174B (11720279_a_at) / RFU TMPRSS4 (11748680_a_at) / Fold change /veh TMPRSS4 (11748680_a_at) / RFU FAM212B (11763350_a_at) / Fold change /veh FAM212B (11763350_a_at) / RFU PLEKHG5 (11743358_a_at) / Fold change /veh PLEKHG5 (11743358_a_at) / RFU ZSCAN30 (11745921_a_at) / Fold change /veh ZSCAN30 (11745921_a_at) / RFU CMKLR1 (11741424_a_at) / Fold change /veh CMKLR1 (11741424_a_at) / RFU LOC101060620 /// MAPK8IP1 (11723275_at) / Fold change /veh LOC101060620 /// MAPK8IP1 (11723275_at) / RFU SPTSSB (11747773_x_at) / Fold change /veh SPTSSB (11747773_x_at) / RFU PRSS12 (11739890_at) / Fold change /veh PRSS12 (11739890_at) / RFU BIN1 (11741810_x_at) / Fold change /veh BIN1 (11741810_x_at) / RFU WNT11 (11732464_a_at) / Fold change /veh WNT11 (11732464_a_at) / RFU C10orf10 (11716521_a_at) / Fold change /veh C10orf10 (11716521_a_at) / RFU C5orf56 (11738089_at) / Fold change /veh C5orf56 (11738089_at) / RFU CYB561 (11721691_x_at) / Fold change /veh CYB561 (11721691_x_at) / RFU ANKRD19P (11752326_a_at) / Fold change /veh ANKRD19P (11752326_a_at) / RFU OR2T12 /// OR2T33 /// OR2T8 (11738714_s_at) / Fold change /veh OR2T12 /// OR2T33 /// OR2T8 (11738714_s_at) / RFU VCAN (11748164_a_at) / Fold change /veh VCAN (11748164_a_at) / RFU JSRP1 (11732532_at) / Fold change /veh JSRP1 (11732532_at) / RFU KRTAP10-11 (11738290_x_at) / Fold change /veh KRTAP10-11 (11738290_x_at) / RFU MYO3A (11730013_a_at) / Fold change /veh MYO3A (11730013_a_at) / RFU EBF3 (11725865_a_at) / Fold change /veh EBF3 (11725865_a_at) / RFU CAMK2N1 (11719241_x_at) / Fold change /veh CAMK2N1 (11719241_x_at) / RFU C5orf56 (11738088_a_at) / Fold change /veh C5orf56 (11738088_a_at) / RFU OLFML3 (11715873_a_at) / Fold change /veh OLFML3 (11715873_a_at) / RFU LOC100653217 /// NTM (11731650_a_at) / Fold change /veh LOC100653217 /// NTM (11731650_a_at) / RFU MAPK11 (11762145_a_at) / Fold change /veh MAPK11 (11762145_a_at) / RFU FIZ1 (11724087_x_at) / Fold change /veh FIZ1 (11724087_x_at) / RFU OASL (11726364_x_at) / Fold change /veh OASL (11726364_x_at) / RFU SOX15 (11748057_x_at) / Fold change /veh SOX15 (11748057_x_at) / RFU CD79A (11719716_a_at) / Fold change /veh CD79A (11719716_a_at) / RFU HIST1H1D (11736915_at) / Fold change /veh HIST1H1D (11736915_at) / RFU CASKIN2 (11723855_a_at) / Fold change /veh CASKIN2 (11723855_a_at) / RFU LOC730098 (11760151_x_at) / Fold change /veh LOC730098 (11760151_x_at) / RFU OR4N2 (11742367_at) / Fold change /veh OR4N2 (11742367_at) / RFU PRRT2 (11749266_a_at) / Fold change /veh PRRT2 (11749266_a_at) / RFU SNX32 (11753110_a_at) / Fold change /veh SNX32 (11753110_a_at) / RFU CDHR5 (11726645_a_at) / Fold change /veh CDHR5 (11726645_a_at) / RFU RCAN1 (11760418_a_at) / Fold change /veh RCAN1 (11760418_a_at) / RFU FAM167A (11723789_a_at) / Fold change /veh FAM167A (11723789_a_at) / RFU FAM26E (11764081_at) / Fold change /veh FAM26E (11764081_at) / RFU ISYNA1 (11749810_s_at) / Fold change /veh ISYNA1 (11749810_s_at) / RFU ACY1 (11761880_at) / Fold change /veh ACY1 (11761880_at) / RFU 11764098_at / Fold change /veh 11764098_at / RFU SAMD14 (11745864_x_at) / Fold change /veh SAMD14 (11745864_x_at) / RFU NPB (11741838_a_at) / Fold change /veh NPB (11741838_a_at) / RFU TMPRSS6 (11731388_a_at) / Fold change /veh TMPRSS6 (11731388_a_at) / RFU KRTAP10-2 (11738614_at) / Fold change /veh KRTAP10-2 (11738614_at) / RFU ARHGAP8 /// PRR5-ARHGAP8 (11727945_x_at) / Fold change /veh ARHGAP8 /// PRR5-ARHGAP8 (11727945_x_at) / RFU KRTAP5-7 /// NADSYN1 (11734609_at) / Fold change /veh KRTAP5-7 /// NADSYN1 (11734609_at) / RFU RASL12 (11751679_a_at) / Fold change /veh RASL12 (11751679_a_at) / RFU CDKN2B (11736163_a_at) / Fold change /veh CDKN2B (11736163_a_at) / RFU PRF1 (11729649_at) / Fold change /veh PRF1 (11729649_at) / RFU, ZNF638 /// ZNF638-IT1 / Fold change vs veh, ZNF638 /// ZNF638-IT1 / RFU, PANK3 / Fold change vs veh, PANK3 / RFU, SH3YL1 / Fold change vs veh, SH3YL1 / RFU, ZEB2 / Fold change vs veh, ZEB2 / RFU, NRIP1 / Fold change vs veh, NRIP1 / RFU, PTTG1IP / Fold change vs veh, PTTG1IP / RFU, CAPN2 / Fold change vs veh, CAPN2 / RFU, MED14 / Fold change vs veh, MED14 / RFU, SNORA58 / Fold change vs veh, SNORA58 / RFU, C1orf63 / Fold change vs veh, C1orf63 / RFU, LRRFIP1 / Fold change vs veh, LRRFIP1 / RFU, NDUFAF7 / Fold change vs veh, NDUFAF7 / RFU, SLC12A2 / Fold change vs veh, SLC12A2 / RFU, IBTK / Fold change vs veh, IBTK / RFU, ESF1 / Fold change vs veh, ESF1 / Fold change vs veh, TMEM50B / RFU, TAOK1 / Fold change vs veh, TAOK1 / RFU, ACBD3 / Fold change vs veh, ACBD3 / RFU, TMA16 / Fold change vs veh, TMA16 / RFU, RWDD3 / Fold change vs veh, RWDD3 / RFU, BCAT1 / Fold change vs veh, BCAT1 / RFU, EDEM3 / Fold change vs veh, EDEM3 / RFU, TMEM33 / Fold change vs veh, TMEM33 / RFU, WDR75 / Fold change vs veh, WDR75 / RFU, AHCTF1 / Fold change vs veh, AHCTF1 / RFU, TFRC / Fold change vs veh, TFRC / RFU, ZDHHC17 / Fold change vs veh, ZDHHC17 / RFU, NOM1 / Fold change vs veh, NOM1 / RFU, ARL8B / Fold change vs veh, ARL8B / RFU, ZBTB11 / Fold change vs veh, ZBTB11 / RFU, TAMM41 / Fold change vs veh, TAMM41 / RFU, KIAA1704 /// LOC100996395 / Fold change vs veh, KIAA1704 /// LOC100996395 / RFU, ING1 / Fold change vs veh, ING1 / RFU, TRMT61B / Fold change vs veh, TRMT61B / RFU, FUBP3 / Fold change vs veh, FUBP3 / RFU, TP53 / Fold change vs veh, TP53 / RFU, TNKS2 / Fold change vs veh, TNKS2 / RFU, ZFP14 / Fold change vs veh, ZFP14 / RFU, ACTR2 / Fold change vs veh, ACTR2 / RFU, PPP3R1 / Fold change vs veh, PPP3R1 / RFU, PIK3R1 / Fold change vs veh, PIK3R1 / RFU, HNRNPA1 / Fold change vs veh, HNRNPA1 / RFU, RNF170 / Fold change vs veh, RNF170 / RFU, ZNF28 / Fold change vs veh, ZNF28 / RFU, RNGTT / Fold change vs veh, RNGTT / RFU, OGT / Fold change vs veh, OGT / RFU, BRD1 / Fold change vs veh, BRD1 / RFU, MARS / Fold change vs veh, MARS / RFU, ZNF655 / Fold change vs veh, ZNF655 / RFU, FAHD1 / Fold change vs veh, FAHD1 / RFU, BDP1 / Fold change vs veh, BDP1 / RFU, LRRCC1 / Fold change vs veh, LRRCC1 / RFU, ARID1A / Fold change vs veh, ARID1A / RFU, ZNF146 / Fold change vs veh, ZNF146 / RFU, ZNF330 / Fold change vs veh, ZNF330 / RFU, GPN3 / Fold change vs veh, GPN3 / RFU, C9orf123 / Fold change vs veh, C9orf123 / RFU, N4BP2L2 / Fold change vs veh, N4BP2L2 / RFU, ARFIP1 / Fold change vs veh, ARFIP1 / RFU, FAM179B / Fold change vs veh, FAM179B / RFU, BCL10 / Fold change vs veh, BCL10 / RFU, UHRF1BP1L / Fold change vs veh, UHRF1BP1L / RFU, BET1 / Fold change vs veh, BET1 / RFU, CNOT2 / Fold change vs veh, CNOT2 / RFU, ZNF268 / Fold change vs veh, ZNF268 / Fold change vs veh, ZNF507 / RFU, DGCR2 / Fold change vs veh, DGCR2 / RFU, WDSUB1 / Fold change vs veh, WDSUB1 / Fold change vs veh, HSP90B1 /// MIR3652 / RFU, ADSS / Fold change vs veh, ADSS / RFU, GK / Fold change vs veh, GK / RFU, ZNF148 / Fold change vs veh, ZNF148 / RFU, TAF9 / Fold change vs veh, TAF9 / RFU, SLC1A5 / Fold change vs veh, SLC1A5 / RFU, SLMO2 / Fold change vs veh, SLMO2 / RFU, ABCC4 / Fold change vs veh, ABCC4 / RFU, LOC101060439 /// RAP1B / Fold change vs veh, LOC101060439 /// RAP1B / RFU, RFX7 / Fold change vs veh, RFX7 / RFU, GTPBP10 / Fold change vs veh, GTPBP10 / RFU, CNEP1R1 / Fold change vs veh, CNEP1R1 / RFU, BIVM-ERCC5 /// ERCC5 / Fold change vs veh, BIVM-ERCC5 /// ERCC5 / RFU, ILF3 / Fold change vs veh, ILF3 / RFU 11762660_at / Fold change /veh 11762660_at / RFU VCAN (11757783_s_at) / Fold change /veh VCAN (11757783_s_at) / RFU DDX43 (11728927_at) / Fold change /veh DDX43 (11728927_at) / RFU KRT8 (11758188_x_at) / Fold change /veh KRT8 (11758188_x_at) / RFU NKD1 (11759106_at) / Fold change /veh NKD1 (11759106_at) / RFU SRD5A1 (11742802_a_at) / Fold change /veh SRD5A1 (11742802_a_at) / RFU TPSAB1 /// TPSB2 (11721975_s_at) / Fold change /veh TPSAB1 /// TPSB2 (11721975_s_at) / RFU GSTM3 (11746129_a_at) / Fold change /veh GSTM3 (11746129_a_at) / RFU IL23R (11737362_x_at) / Fold change /veh IL23R (11737362_x_at) / RFU TMEM51 (11727254_a_at) / Fold change /veh TMEM51 (11727254_a_at) / RFU PIWIL2 (11732686_x_at) / Fold change /veh PIWIL2 (11732686_x_at) / RFU ORM1 (11744905_x_at) / Fold change /veh ORM1 (11744905_x_at) / RFU CCDC152 (11743942_at) / Fold change /veh CCDC152 (11743942_at) / RFU ECM1 (11717891_a_at) / Fold change /veh ECM1 (11717891_a_at) / RFU IL23R (11748794_a_at) / Fold change /veh IL23R (11748794_a_at) / RFU TNFAIP8L3 (11732012_x_at) / Fold change /veh TNFAIP8L3 (11732012_x_at) / RFU MBOAT4 (11741988_at) / Fold change /veh MBOAT4 (11741988_at) / RFU 11764193_at / Fold change /veh 11764193_at / RFU TMEM53 (11763286_at) / Fold change /veh TMEM53 (11763286_at) / RFU MAGEB2 (11727129_at) / Fold change /veh MAGEB2 (11727129_at) / RFU TMEM200A (11744735_a_at) / Fold change /veh TMEM200A (11744735_a_at) / RFU CCDC152 (11751479_a_at) / Fold change /veh CCDC152 (11751479_a_at) / RFU FAM211A (11726209_a_at) / Fold change /veh FAM211A (11726209_a_at) / RFU RGS16 (11746705_a_at) / Fold change /veh RGS16 (11746705_a_at) / RFU VCAN (11755009_s_at) / Fold change /veh VCAN (11755009_s_at) / RFU RHOB (11743442_s_at) / Fold change /veh RHOB (11743442_s_at) / RFU RGS16 (11720943_a_at) / Fold change /veh RGS16 (11720943_a_at) / RFU RGS16 (11720944_at) / Fold change /veh RGS16 (11720944_at) / RFU, VPS4B / Fold change vs veh, VPS4B / RFU, CREB1 / Fold change vs veh, CREB1 / RFU, DNAJC13 / Fold change vs veh, DNAJC13 / RFU, GNAQ / Fold change vs veh, GNAQ / RFU, CDK5R1 / Fold change vs veh, CDK5R1 / RFU, ZRANB3 / Fold change vs veh, ZRANB3 / RFU, CUL4A / Fold change vs veh, CUL4A / RFU, CCNY / Fold change vs veh, CCNY / RFU, UFL1 / Fold change vs veh, UFL1 / RFU, COG3 / Fold change vs veh, COG3 / RFU, DIAPH2 / Fold change vs veh, DIAPH2 / RFU, SKA2 / Fold change vs veh, SKA2 / RFU, AFF3 / Fold change vs veh, AFF3 / RFU, LMF1 / Fold change vs veh, LMF1 / RFU, IPO11 / Fold change vs veh, IPO11 / RFU, DFFB / Fold change vs veh, DFFB / RFU, FOXP1 / Fold change vs veh, FOXP1 / RFU, CARD8 / Fold change vs veh, CARD8 / RFU, STRN3 / Fold change vs veh, STRN3 / RFU, ADK / Fold change vs veh, ADK / RFU, RASSF2 / Fold change vs veh, RASSF2 / RFU, WIPF1 / Fold change vs veh, WIPF1 / RFU, LARP1B / Fold change vs veh, LARP1B / RFU, RASA1 / Fold change vs veh, RASA1 / RFU, RB1 / Fold change vs veh, RB1 / RFU, PPFIA1 / Fold change vs veh, PPFIA1 / RFU, MAT2A / Fold change vs veh, MAT2A / RFU, CCT5 / Fold change vs veh, CCT5 / RFU, WDR92 / Fold change vs veh, WDR92 / RFU, CUX1 / Fold change vs veh, CUX1 / RFU, TTC7A / Fold change vs veh, TTC7A / RFU, TMEM135 / Fold change vs veh, TMEM135 / RFU, DEPTOR / Fold change vs veh, DEPTOR / RFU, CPM / Fold change vs veh, CPM / RFU, DNAJB6 / Fold change vs veh, DNAJB6 / RFU, CACNA2D3 / Fold change vs veh, CACNA2D3 / RFU, DTX4 / Fold change vs veh, DTX4 / RFU, TFCP2 / Fold change vs veh, TFCP2 / RFU, GMCL1 /// GMCL1P1 / Fold change vs veh, GMCL1 /// GMCL1P1 / RFU, AEBP2 / Fold change vs veh, AEBP2 / RFU, SNHG1 /// SNORD22 /// SNORD25 /// SNORD26 /// SNORD27 /// SNORD28 /// SNORD29 /// SNORD31 / Fold change vs veh, SNHG1 /// SNORD22 /// SNORD25 /// SNORD26 /// SNORD27 /// SNORD28 /// SNORD29 /// SNORD31 / Fold change (Aza/veh), C12orf56 (ProbeSet 11735607_a_at) / Fold change (ACY-1035/veh), C12orf56 (ProbeSet 11735607_a_at) / Fold change (Aza/veh), FGFR1OP (ProbeSet 11751329_s_at) / Fold change (ACY-1035/veh), FGFR1OP (ProbeSet 11751329_s_at) / Fold change (Aza/veh), VPS36 (ProbeSet 11739960_a_at) / Fold change (ACY-1035/veh), VPS36 (ProbeSet 11739960_a_at) / RFU SYPL1 (11715823_x_at) / Fold change /veh SYPL1 (11715823_x_at) / RFU IGFBP7 (11715501_s_at) / Fold change /veh IGFBP7 (11715501_s_at) / RFU REEP3 (11722064_at) / Fold change /veh REEP3 (11722064_at) / RFU IGLL1 (11728026_x_at) / Fold change /veh IGLL1 (11728026_x_at): dose or concentration left out as unconfirmed. The conditions noted are these: MV-4-11 cells, 48 hours.

In the case of `Nc1ncn([C@@H]2O[C@H](CO)[C@@H](O)[C@H]2O)c(=O)n1` [azacitidine], the “Fold change /veh RGS16 (11720943_a_at)” value turned out to be 1.45.
